Results taken from patent US20080113955A1, “TREATMENT OF INFANT HYPERBIL[…] LOW DOSAGES OF STANNSOPORFIN” (priority 2006, published 2008).

What was measured:
[1] = tested on: jaundiced infants; details: single dose of 6 umol/kg birthweight (4.5 mg/kg birthweight); cited from earlier work
[2] = Side effects / adverse events in the low-dose stannsoporfin infant study; assay type: in vivo, human
Experimental: (§1) Low-dose administration of stannsoporfin was tested in a group of infants in Hanoi, Vietnam and Michigan, United States. The known and unknown risks of the proposed study intervention and the potential for direct and indirect benefit were discussed with each subject's parents or guardians. Written informed consent was obtained from a parent or guardian of each subject before enrollment in the study. The study protocol was conducted under the guidelines of current Good Clinical Practice as promulgated by the United States Food and Drug Administration and international regulatory bodies. The study was reviewed and approved by the Institutional Review Board of the William Beaumont Hospital, Royal Oak, Mich., and the Vietnamese Ministry of Health and the Ethics Review Board of the National Hospital for Pediatrics of Hanoi.
All infants received phototherapy to treat hyperbilirubinemia; thus, the group designated as “placebo” were treated with phototherapy, as were the other groups. The placebo group had 18 babies total. […] The 0.75 mg/kg stannsoporfin group had 19 babies total. […] The 1.5 mg/kg stannsoporfin group had 18 babies total. […] Treatment refers to either placebo injection or stannsoporfin injection; as previously indicated, all babies received phototherapy. The placebo used was normal physiological saline. Stannsoporfin was administered via intramuscular injection in sodium phosphate buffer at a concentration of 20 mg/ml. A vial containing 1.5 ml was used, where a dose based on birthweight of the infant and whether a 0.75 mg/kg or 1.5 mg/kg dose was withdrawn. (For example, a 5 kg birthweight baby treated at a dose of 1.5 mg/kg would receive 7.5 mg of stannsoporfin; thus, a volume of 0.375 ml from the 20 mg/ml solution would be used to provide this dose.) In the majority of cases, the infants were between 4 and 7 days of age at the time of either stannsoporfin administration or exchange transfusion. […]

[3] = tested on: infant hyperbilirubinemia; test: Low-dose administration of stannsoporfin in infants with hyperbilirubinemia (all receiving phototherapy): serum bilirubin and need for exchange transfusion; assay type: in vivo, human; details: for # transfused pts (babies total received exchange transfusions): intramuscular, before or after treatment
Experimental: as §1
All infants received phototherapy to treat hyperbilirubinemia; thus, the group designated as “placebo” were treated with phototherapy, as were the other groups. The placebo group had 18 babies total. […] The 0.75 mg/kg stannsoporfin group had 19 babies total. […] The 1.5 mg/kg stannsoporfin group had 18 babies total. […] Treatment refers to either placebo injection or stannsoporfin injection; as previously indicated, all babies received phototherapy. The placebo used was normal physiological saline. Stannsoporfin was administered via intramuscular injection in sodium phosphate buffer at a concentration of 20 mg/ml. A vial containing 1.5 ml was used, where a dose based on birthweight of the infant and whether a 0.75 mg/kg or 1.5 mg/kg dose was withdrawn. (For example, a 5 kg birthweight baby treated at a dose of 1.5 mg/kg would receive 7.5 mg of stannsoporfin; thus, a volume of 0.375 ml from the 20 mg/ml solution would be used to provide this dose.) In the majority of cases, the infants were between 4 and 7 days of age at the time of either stannsoporfin administration or exchange transfusion. The results are shown in FIG. 1 and FIG. 2; infants receiving stannsoporfin injections who required exchange transfusions before or after treatment are not included in the data presented in FIG. 1 for any group, while babies in the stannsoporfin groups who required exchange transfusion are excluded from FIG. 2 and only babies in the placebo group that did receive exchange transfusion are included in FIG. 2.

[4] = 0.75 mg/kg group, 19 babies total
[5] = 1.5 mg/kg group, 18 babies total

tin (IV) mesoporphyrin IX dichloride [stannsoporfin]
need for phototherapy in jaundiced infants [1]: could avoid the need for phototherapy | adverse events considered probably or definitely related to the study treatment ([2]; all treatment groups): None | infants who experienced at least one adverse event ([2]; each treatment group): Greater than 60% | incidence, severity, seriousness, and causality of adverse events, differences among the three treatment groups ([2]; placebo, 0.75 mg/kg and 1.5 mg/kg groups): no statistically significant differences | # transfused pts (babies total received exchange transfusions) ([3]; 0.75 mg/kg birthweight, N = 19, plus phototherapy): 3 | babies who did not receive an exchange transfusion [3, 4]: 16 | babies who received an exchange transfusion after treatment [3, 4]: 1 | % requiring transfusions ([3]; 0.75 mg/kg, N = 19): 16% | # transfused pts (babies total received exchange transfusions) ([3]; 1.5 mg/kg birthweight, N = 18, plus phototherapy): 2 | babies who did not receive exchange transfusion [3, 5]: 16 | babies who received an exchange transfusion after treatment [3, 5]: 2 | % requiring transfusions ([3]; 1.5 mg/kg, N = 18): 11% | significance value P versus placebo, serum bilirubin ([3]; 1.5 mg/kg, at 24 hours, FIG. 1): < 0.05 | significance value P versus placebo, serum bilirubin ([3]; 1.5 mg/kg, at 48 hours, FIG. 1): < 0.001 | decrease in serum bilirubin compared with the exchange transfusion (placebo injection) group ([3]; 1.5 mg/kg, FIG. 2): greater than that for the exchange transfusion group at 3 of the 4 post-treatment data points | reduction of serum bilirubin versus placebo (phototherapy only) ([3]; both doses, 0.75 mg/kg and 1.5 mg/kg, babies who required exchange transfusions excluded, FIG. 1): greater reduction of serum bilirubin than the placebo group | percentage reduction in starting bilirubin levels ([3]; both stannsoporfin groups, 0.75 mg/kg and 1.5 mg/kg, babies without exchange transfusion, FIG. 2): substantial decrease in serum bilirubin | need for exchange transfusion ([3]; low-dose stannsoporfin (0.75 and 1.5 mg/kg) versus control): significantly decreased the need for exchange transfusion
